Experiments:
Format in all cases: cell-based
[1] = test system: fucosylation of antibodies; assay: Percentage of nonfucosylated antibodies for antibodies grown in the presence of fucosylation inhibitors (FIG. 2A); conditions: antibodies grown in presence of inhibitor at 1 mM to 6 mM
Method: The level of fucosylation in an antibody preparation may be determined by any method known in the art, including but not limited to gel electrophoresis, liquid chromatography, and mass spectrometry. Unless otherwise indicated, for the purposes of the present invention, the level of fucosylation in an antibody preparation is determined by hydrophilic interaction chromatography (or hydrophilic interaction liquid chromatography, HILIC), essentially as described at Example 2. To determine the level of fucosylation of an antibody preparation, samples are denatured treated with PNGase F to cleave N-linked glycans, which are then analyzed for fucose content. LC/MS of full-length antibody chains is an alternative method to detect the level of fucosylation of an antibody preparation, but mass spectroscopy is inherently less quantitative.
Nonfucosylated antibody preparations may be analyzed to determine the percentage of afucosylated heavy chains essentially as follows.
Antibodies are first denatured using urea and then reduced using DTT (dithiothreitol). Samples are then digested overnight at 37° C. with PNGase F to remove N-linked glycans. […] The resulting labeled glycans are then resolved on a HILIC column and the eluted fractions are quantified by fluorescence and dried. […] Untreated samples and BKF-treated samples are then analyzed by liquid chromatography. […]

[2] = test system: antibody production cell line; assay: Antibody titers of the same antibody preparations (FIG. 2B); conditions: same preparations as FIG. 2A, inhibitor 1 mM to 6 mM, compared with GDP-D-rhamnose
[3] = test system: fucosylation of antibodies; assay: Electropherograms of antibody preparations, glycoform peaks (FIGS. 3A-3C); conditions: cells cultured with 6 mM or 10 mM inhibitor vs no inhibitor
Method: FIGS. 3A, 3B and 3C show electropherograms of antibody preparations made using cells cultured without a fucosylation inhibitor or in the presence of 6 mM or 10 mM Ac-GDP-D-rhamnose, respectively. Peaks for different glycoforms are indicated, with white boxes for fucosylated species and dark boxes for nonfucosylated species.

Compound: C[C@H]1O[C@H](OP(=O)(O)OP(=O)(O)OC[C@H]2O[C@@H](n3cnc4c(=O)[nH]c(N)nc43)[C@H](O)[C@@H]2O)[C@@H](O)[C@@H](O)[C@@H]1O [GDP-D-rhamnose]
- percentage of nonfucosylated antibodies [1]: increasing the percentage of nonfucosylated antibodies

Compound: Ac-GDP-D-rhamnose
- antibody titer (yield) [2]: less deleterious effect on titer
- percentage of nonfucosylated antibodies [1]: as effective as GDP-D-rhamnose
- proportion of nonfucosylated species (glycoforms) [3]: increase the proportion of nonfucosylated species
